Data reported in patent publication US7776847B2, “Benzisothiazoles useful for treating or preventing HCV infection” (priority 2005, dated 2010).

Tested on: HCV replicon
Test: HCV replicon luciferase reporter assay
Type: cell-based
Settings: Hepatitis C virus, Table 5; read-out: IC50
Procedure, shortened: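 Replicon-bearing dividing cells seeded at 5,000–7,500 cells/well, grown 24 h at 37° C/5% CO2, then exposed to test compound at various concentrations for a further 24–48 h. Replication/translation read by luciferase reporter; IC50 taken as compound amount giving 50% reduction in luciferase activity.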

SMILES	IC50
COc1ccc(-c2cccc(C(=O)NCCCNc3nsc4ccccc34)c2)cc1 [Compound 378, N-(3-(benzo[d]isothiazol-3-ylamino)propyl)-4′-methoxybiphenyl-3-carboxamide]	< 5 µM
CCCCc1ccc(NC(=O)NCCCNc2nsc3ccccc23)cc1 [Compound 379, 1-(3-(benzo[d]isothiazol-3-ylamino)propyl)-3-(4-butylphenyl)urea]	< 5 µM
O=C(NCCCNc1nsc2ccccc12)c1cccc(-c2ccc(Cl)nc2)c1 [Compound 380, N-(3-(benzo[d]isothiazol-3-ylamino)propyl)-3-(6-chloropyridin-3-yl)benzamide]	< 5 µM
CCOc1ccc(C)c(-c2cccc(C(=O)NCCCNc3nsc4ccccc34)c2)c1 [Compound 381, N-(3-(benzo[d]isothiazol-3-ylamino)propyl)-3′-ethoxy-6′-methylbiphenyl-3-carboxamide]	< 5 µM
COc1ccc(OC)c(-c2cccc(C(=O)NCCCNc3nsc4ccccc34)c2)c1 [Compound 382, N-(3-(benzo[d]isothiazol-3-ylamino)propyl)-3′,6′-dimethoxybiphenyl-3-carboxamide]	< 5 µM
CCCOc1cc(F)ccc1-c1cccc(C(=O)NCCCNc2nsc3ccccc23)c1 [Compound 383, N-(3-(benzo[d]isothiazol-3-ylamino)propyl)-4′-fluoro-6′-propoxybiphenyl-3-carboxaimde]	< 5 µM
COc1ccccc1-c1cccc(C(=O)NCCCNc2nsc3ccccc23)c1 [Compound 384, N-(3-(benzo[d]isothiazol-3-ylamino)propyl)-6′-methoxybiphenyl-3-carboxamide]	< 5 µM
O=C(NCCNc1nsc2ccccc12)c1ccc(-c2ccccc2O)cc1 [Compound 385, N-(2-(benzo[d]isothiazol-3-ylamino)ethyl)-2′-hydroxybiphenyl-4-carboxamide]	< 5 µM
O=C(NCCCNc1nsc2ccccc12)c1cccc(I)c1 [Compound 386, N-(3-(benzo[d]isothiazol-3-ylamino)propyl)-3-iodobenzamide]	< 5 µM
O=C(NCCCNc1nsc2ccccc12)Nc1ccc(I)cc1 [Compound 387, 1-(3-(benzo[d]isothiazol-3-ylamino)propyl)-3-(4-iodophenyl)urea]	< 5 µM
COc1ccc(-c2cccc(C(=O)NCCCNc3nsc4ccccc34)c2)cn1 [Compound 388, N-(3-(benzo[d]isothiazol-3-ylamino)propyl)-3-(6-methoxypyridin-3-yl)benzamide]	< 5 µM
CC(C)(C)OC(=O)N1CC=C(c2cccc(C(=O)NCCCNc3nsc4ccccc34)c2)CC1 [Compound 390, tert-butyl 4-(3-(3-(benzo[d]isothiazol-3-ylamino)propylcarbamoyl)phenyl)-5,6-dihydropyridine-1(2H)-carboxylate]	< 5 µM
CCOc1cc(OCC)cc(C(=O)NCCCNc2nsc3ccccc23)c1 [Compound 391, N-(3-(benzo[d]isothiazol-3-ylamino)propyl)-3,5-diethoxybenzamide]	< 5 µM
Cc1ccc(OC(C)C)c(-c2ccc(NC(=O)NCCCNc3nsc4ccccc34)cc2)c1 [Compound 392, 1-(3-(benzo[d]isothiazol-3-ylamino)propyl)-3-(2′-isopropoxy-5′-methylbiphenyl-4-yl)urea]	< 5 µM
COc1cc(F)ccc1-c1ccc(NC(=O)NCCCNc2nsc3ccccc23)cc1 [Compound 393, 1-(3-(benzo[d]isothiazol-3-ylamino)propyl)-3-(4′-fluoro-2′-methoxybiphenyl-4-yl)urea]	< 5 µM
O=C(NCCCNc1nsc2ccccc12)c1cccc(C2=CCNCC2)c1 [Compound 394, N-(3-(benzo[d]isothiazol-3-ylamino)propyl)-3-(1,2,3,6-tetrahydropyridin-4-yl)benzamide]	< 5 µM
COc1ccccc1-c1ccc(NC(=O)NCCCNc2nsc3ccccc23)cc1 [Compound 395, 1-(3-(benzo[d]isothiazol-3-ylamino)propyl)-3-(2′-methoxybiphenyl-4-yl)urea]	< 5 µM
O=C(NCCCNc1nsc2ccccc12)c1ccc(O)c(Br)c1 [Compound 396, N-(3-(benzo[d]isothiazol-3-ylamino)propyl)-3-bromo-4-hydroxybenzamide]	< 5 µM
O=C(NCCCNc1nsc2ccccc12)c1ccc(OCCN2CCOCC2)c(Br)c1 [Compound 397, N-(3-(benzo[d]isothiazol-3-ylamino)propyl)-3-bromo-4-(2-morpholinoethoxy)benzamide]	< 5 µM
COc1ccc(-c2ccc(C(=O)NCCCNc3nsc4cccc(S(=O)(=O)NC(C)(C)C)c34)cc2)cc1 [Compound 398, N-(3-(4-(N-tert-butylsulfamoyl)benzo[d]isothiazol-3-ylamino)propyl)-4′-methoxybiphenyl-4-carboxamide]	> 5 µM
COc1ccc(-c2ccc(C(=O)NCCCNc3nsc4cc(S(=O)(=O)NC(C)(C)C)ccc34)cc2)cc1 [Compound 399, N-(3-(6-(N-tert-butylsulfamoyl)benzo[d]isothiazol-3-ylamino)propyl)-4′-methoxybiphenyl-4-carboxamide]	> 5 µM

SMILES	IC50
COc1ccc(-c2ccc(C(=O)NCCCNc3nsc4c(S(=O)(=O)C(C)(C)C)cccc34)cc2)cc1 [Compound 400, N-(3-(7-(tert-butylsulfonyl)benzo[d]isothiazol-3-ylamino)propyl)-4′-methoxybiphenyl-4-carboxamide]	< 5 µM
COc1ccc(-c2ccc(C(=O)NCCCNc3nsc4cccc(S(N)(=O)=O)c34)cc2)cc1 [Compound 401, 4′-methoxy-N-(3-(4-sulfamoylbenzo[d]isothiazol-3-ylamino)propyl)biphenyl-4-carboxamide]	> 5 µM
COc1ccc(-c2ccc(C(=O)NCCCNc3nsc4cc(S(N)(=O)=O)ccc34)cc2)cc1 [Compound 402, 4′-methoxy-N-(3-(6-sulfamoylbenzo[d]isothiazol-3-ylamino)propyl)biphenyl-4-carboxamide]	< 5 µM
COc1ccc(-c2ccc(CNCCCNc3nsc4ccc(Br)cc34)cc2)cc1 [Compound 404, N^1-(5-bromobenzo[d]isothiazol-3-yl)-N^3-((4′-methoxybiphenyl-4-yl)methyl)propane-1,3-diamine]	< 5 µM
COc1ccc(-c2ccc(C(=O)NCCCNc3nsc4ccc(-c5ccccc5)cc34)cc2)cc1 [Compound 405, 4′-methoxy-N-(3-(5-phenylbenzo[d]isothiazol-3-ylamino)propyl)biphenyl-4-carboxamide]	< 5 µM
COc1ccc(-c2ccc(C(=O)NCCCNc3nsc4ccc(-c5ccc(OC)cc5)cc34)cc2)cc1 [Compound 406, 4′-methoxy-N-(3-(5-(4-methoxyphenyl)benzo[d]isothiazol-3-ylamino)propyl)biphenyl-4-carboxamide]	< 5 µM
COc1ccc(-c2ccc(C(=O)NCCCNc3nsc4ccc(-c5cccc(OC)c5F)cc34)cc2)cc1 [Compound 407, N-(3-(5-(2-fluoro-3-methoxyphenyl)benzo[d]isothiazol-3-ylamino)propyl)-4′-methoxybiphenyl-4-carboxamide]	< 5 µM
COc1ccc(-c2ccc(C(=O)NCCCNc3nsc4ccc(-c5ccc(OC(C)C)cc5)cc34)cc2)cc1 [Compound 409, N-(3-(5-(4-isopropoxyphenyl)benzo[d]isothiazol-3-ylamino)propyl)-4′-methoxybiphenyl-4-carboxamide]	< 5 µM
COc1ccc(-c2ccc(CNCCCNc3nsc4ccc(-c5ccc(OC)cc5)cc34)cc2)cc1 [Compound 410, N^1-((4′-methoxybiphenyl-4-yl)methyl)-N^3-(5-(4-methoxyphenyl)benzo[d]isothiazol-3-yl)propane-1,3-diamine]	< 5 µM
COc1ccc(-c2ccc(CNCCCNc3nsc4ccc(-c5cc(F)cc(F)c5)cc34)cc2)cc1 [Compound 411, N^1-(5-(3,5-difluorophenyl)benzo[d]isothiazol-3-yl)-N^3-((4′-methoxybiphenyl-4-yl)methyl)propane-1,3-diamine]	< 5 µM
Cn1c(C(=O)NCCNc2nsc3ccccc23)cc2ccccc21 [Compound 412, N-(2-(benzo[d]isothiazol-3-ylamino)ethyl)-1-methyl-1H-indole-2-carboxamide]	< 5 µM
O=C(NCCNc1nsc2ccccc12)c1cc(-c2ccccc2)n[nH]1 [Compound 413, N-(2-(benzo[d]isothiazol-3-ylamino)ethyl)-3-phenyl-1H-pyrazole-5-carboxamide]	> 5 µM
O=Cc1cccc(C(=O)NCCNc2nsc3ccccc23)c1 [Compound 414, N-(2-(benzo[d]isothiazol-3-ylamino)ethyl)-3-formylbenzamide]	> 5 µM
O=Cc1ccc(C(=O)NCCNc2nsc3ccccc23)cc1 [Compound 415, N-(2-(benzo[d]isothiazol-3-ylamino)ethyl)-4-formylbenzamide]	> 5 µM
O=C(NCCNc1nsc2ccccc12)c1cccc(CO)c1 [Compound 416, N-(2-(benzo[d]isothiazol-3-ylamino)ethyl)-3-(hydroxymethyl)benzamide]	> 5 µM
c1ccc2c(NCCNc3nsc4ccccc34)nsc2c1 [Compound 417, N^1,N^2-di(benzo[d]isothiazol-3-yl)ethane-1,2-diamine]	> 5 µM
CCCNC(=O)c1ccc(C(=O)NCCNc2nsc3ccccc23)cc1 [Compound 418, N^1-(2-(benzo[d]isothiazol-3-ylamino)ethyl)-N^4-propylterephthalamide]	> 5 µM
O=C(NCCCNc1nsc2ccccc12)c1cccc(Br)n1 [Compound 419, N-(3-(benzo[d]isothiazol-3-ylamino)propyl)-6-bromopicolinamide]	< 5 µM
O=C(NCCCNc1nsc2ccccc12)c1cccc(F)n1 [Compound 420, N-(3-(benzo[d]isothiazol-3-ylamino)propyl)-6-fluoropicolinamide]	> 5 µM
CCCCc1ccc(C(=O)NCCNc2nsc3ccc(Cl)cc23)cc1 [Compound 421, 4-butyl-N-(2-(5-chlorobenzo[d]isothiazol-3-ylamino)ethyl)benzamide]	< 5 µM
CCCCNC(=O)c1ccc(C(=O)NCCNc2nsc3ccccc23)cc1 [Compound 422, N^1-(2-(benzo[d]isothiazol-3-ylamino)ethyl)-N^4-butylterephthalamide]	< 5 µM
